From patent US20060069110A1, “Substituted heterocyclic compounds and methods of use” (priority 2004, published 2006)
pIC50: −log10 of the molar value.

The molecules below were run on THP1 cells (LPS induced TNF release) (assay: Lipopolysaccharide-Activated THP1 Cell TNF Production Assay). Conditions: Homo sapiens, THP-1; THP1 cells, bacterial LPS, secreted TNF-α after 3 h at 37° C.; read-out: IC50 values in the THP1 cell assay (LPS induced TNF release).
Format: cell-based
Experimental: Lipopolysaccharide-Activated THP1 Cell TNF Production Assay
THP1 cells are resuspended in fresh THP1 media (RPMI 1640, 10% heat-inactivated FBS, 1×PGS, 1×NEAA, plus 30 μM βME) at a concentration of 1E6/mL. One hundred microliters of cells per well are plated in a polystyrene 96-well tissue culture. One microgram per mL of bacterial LPS is prepared in THP1 media and is transferred to the wells. Test compounds are dissolved in 100% DMSO and are serially diluted 3 fold in a polypropylene 96-well microtiter plate (drug plate). HI control and LO control wells contain only DMSO. One microliter of test compound from the drug plate followed by 10 μL of LPS are transferred to the cell plate. The treated cells are induced to synthesize and secrete TNF-α at 37° C. for 3 h. Forty microliters of conditioned media are transferred to a 96-well polypropylene plate containing 110 μL of ECL buffer (50 mM Tris-HCl pH 8.0, 100 mM NaCl, 0.05% Tween 20, 0.05% NaN3 and 1% FBS) supplemented with 0.44 nM MAB610 monoclonal Ab (R&D Systems), 0.34 nM ruthenylated AF210NA polyclonal Ab (R&D Systems) and 44 μg/mL sheep anti-mouse M280 Dynabeads (Dynal). After a 2 h incubation at RT with shaking, the reaction is read on the ECL M8 Instrument (IGEN Inc.). A low voltage is applied to the ruthenylated TNF-α immune complexes, which in the presence of TPA (the active component in Origlo), results in a cyclical redox reaction generating light at […]. The amount of secreted TNF-α in the presence of compound compared with that in the presence of DMSO vehicle alone (HI control) is calculated using the formula: % control (POC)=(cpd−average LO)/(average HI−average LO)*100. Data (consisting of POC and inhibitor concentration in μM) is fitted to a 4-parameter equation (y=A+((B−A)/(1+((×/C)ôD))), where A is the minimum y (POC) value, B is the maximum y (POC), C is the x (cpd concentration) at the point of inflection and D is the slope factor) using a Levenburg-Marquardt non-linear regression algorithm.

pIC50, ≥ 4.70:
C[C@H](N)c1ccc(CCNc2nccc(N(C)c3ccnc(-c4ccccc4)n3)n2)cc1 [Example 28, (S)-N^2-(4-(1-Aminoethyl)phenethyl)-N^4-methyl-N^4-(2-phenylpyrimidin-4-yl)-pyrimidine-2,4-diamine]
C[C@@H](Cc1cccc(C(C)(C)N)c1)Nc1nccc(N(C)c2ccnc(-c3ccccc3)n2)n1 [Example 29, (S)-N^2-(1-(3-(2-Aminopropan-2-yl)phenyl)propan-2-yl)-N^4-methyl-N^4-(2-phenylpyrimidin-4-yl)pyrimidine-2,4-diamine]
CN(c1ccnc(N[C@@H](CCO)c2ccccc2)n1)c1ccnc(-c2ccccc2)n1 [Example 30, (S)-3-(4-(Methyl(2-phenylpyrimidin-4-yl)amino)pyrimidin-2-ylamino)-3-phenylpropan-1-ol]
CN(c1ccnc(N[C@H](CCO)c2ccccc2)n1)c1ccnc(-c2ccccc2)n1 [Example 31, (R)-3-(4-(Methyl(2-phenylpyrimidin-4-yl)amino)pyrimidin-2-ylamino)-3-phenylpropan-1-ol]
Cc1cc(N(C)c2ccnc(-c3ccccc3)n2)nc(NC2CCC(N)CC2)n1 (stereo not shown) [Example 33, N2-((1r,4r)-4-Aminocyclohexyl)-N4,6-dimethyl-N4-(2-phenylpyrimidin-4-yl)pyrimidine-2,4-diamine]
Cc1cc(N(C)c2ccnc(-c3ccccc3)n2)nc(N[C@@H](C)Cc2cccc(CNC(=O)[C@H](C)N)c2)n1 [Example 35, (S)-N-((S)-3-((S)-2-(4-Methyl-6-(methyl(2-phenylpyrimidin-4-yl)amino)pyrimidin-2-ylamino)propyl)benzyl)-2-aminopropanamide]
Cc1cc(N(C)c2ccnc(-c3ccccc3)n2)nc(N[C@@H](C)Cc2cccc([C@@H](C)N)c2)n1 [Example 36, N^2-((S)-1-(3-((R)-1-Aminoethyl)phenyl)propan-2-yl)-N^4,6-dimethyl-N^4-(2-phenylpyrimidin-4-yl)pyrimidine-2,4-diamine]
CN(c1ccnc(N[C@H](Cc2ccccc2)C(N)=O)n1)c1ccnc(-c2ccccc2)n1 [Example 39]
C[C@H](N)c1cccc(C[C@H](C)Nc2nccc(N(C)c3ccnc(-c4ccccc4)n3)n2)c1 [Example 40, N^2-((S)-1-(3-((S)-1-Aminoethyl)phenyl)propan-2-yl)-N^4-methyl-N^4-(2-phenyl-pyrimidin-4-yl)pyrimidine-2,4-diamine]
C[C@@H](Cc1cc(C#N)ccc1Cl)Nc1nccc(N(C)c2ccnc(-c3ccccc3)n2)n1 [Example 41, (S)-4-Chloro-3-(2-(4-(methyl(2-phenylpyrimidin-4-yl)amino)pyrimidin-2-ylamino)-propyl)benzonitrile]
C[C@@H](Cc1cc(CN)ccc1Cl)Nc1nccc(N(C)c2ccnc(-c3ccccc3)n2)n1 [Example 42, (S)-N^2-(1-(5-(Aminomethyl)-2-chlorophenyl)propan-2-yl)-N^4-methyl-N^4-(2-phenyl-pyrimidin-4-yl)pyrimidine-2,4-diamine]
CN(c1ccnc(NC2CCN(C(=O)CN)CC2)n1)c1ccnc(-c2ccccc2)n1 [Example 43, 2-Amino-1-(4-(4-(methyl(2-phenylpyrimidin-4-yl)amino)pyrimidin-2-ylamino)-piperidin-1-yl)ethanone]
C[C@@H](N)CC(=O)N1CCC(Nc2nccc(N(C)c3ccnc(-c4ccccc4)n3)n2)CC1 [Example 44, (R)-3-Amino-1-(4-(4-(methyl(2-phenylpyrimidin-4-yl)amino)pyrimidin-2-ylamino)-piperidin-1-yl)butan-1-one]
CN(c1ccnc(N[C@H](Cc2ccccc2)C(=O)O)n1)c1ccnc(-c2ccccc2)n1 [Example 45, (R)-2-(4-(Methyl(2-phenylpyrimidin-4-yl)amino)pyrimidin-2-ylamino)-3-phenyl-propanoic acid]
CNC(=O)[C@@H](Cc1ccccc1)Nc1nccc(N(C)c2ccnc(-c3ccccc3)n2)n1 [Example 46, (R)-N-Methyl-2-(4-(methyl(2-phenylpyrimidin-4-yl)amino)pyrimidin-2-ylamino)-3-phenylpropanamide]
CN(c1ccnc(N[C@@H](CN)Cc2ccccc2)n1)c1ccnc(-c2ccccc2)n1 [Example 48, (R)-N^2-(1-Amino-3-phenylpropan-2-yl)-N^4-methyl-N^4-(2-phenylpyrimidin-4-yl)pyrimidine-2,4-diamine]
CC(C)NC[C@@H](Cc1ccccc1)Nc1nccc(N(C)c2ccnc(-c3ccccc3)n2)n1 [Example 49, (R)-N^2-(3-(Isopropylamino)-1-phenylpropan-2-yl)-N^4-methyl-N^4-(2-phenyl-pyrimidin-4-yl)pyrimidine-2,4-diamine]
CN(c1ccnc(N[C@@H](CNCCN)Cc2ccccc2)n1)c1ccnc(-c2ccccc2)n1 [Example 50, (R)-N^2-(3-(2-Aminoethylamino)-1-phenylpropan-2-yl)-N^4-methyl-N^4-(2-phenyl-pyrimidin-4-yl)pyrimidine-2,4-diamine]
CN(c1ccnc(N[C@@H](CNC(=O)CN)Cc2ccccc2)n1)c1ccnc(-c2ccccc2)n1 [Example 52, (R)-2-Amino-N-(2-(4-(methyl(2-phenylpyrimidin-4-yl)amino)pyrimidin-2-ylamino)-3-phenylpropyl)acetamide]
CN(c1ccnc(N[C@H](Cc2ccccc2)CN2CCOCC2)n1)c1ccnc(-c2ccccc2)n1 [Example 53, (R)-N^4-methyl-N^2-(3-morpholino-1-phenylpropan-2-yl)-N^4-(2-phenylpyrimidin-4-yl)pyrimidine-2,4-diamine]
CN(c1ccnc(N[C@@H](CCN2CCOCC2)Cc2ccccc2)n1)c1ccnc(-c2ccccc2)n1 [Example 54, (R)-N^4-Methyl-N^2-(4-morpholino-1-phenylbutan-2-yl)-N^4-(2-phenylpyrimidin-4-yl)pyrimidine-2,4-diamine]
CN(c1ccnc(NCCc2ccccc2Cl)n1)c1nccc(C(C)(C)C)n1 [Example 55, N^2-(2-Chlorophenethyl)-N^4-(4-tert-butylpyrimidin-2-yl)-N^4-methylpyrimidine-2,4-diamine]
CN(c1ccnc(N[C@@H](CCN)Cc2ccccc2)n1)c1ccnc(-c2ccccc2)n1 [Example 57, (R)-N^2-(4-Amino-1-phenylbutan-2-yl)-N^4-methyl-N^4-(2-phenylpyrimidin-4-yl)pyrimidine-2,4-diamine]
CC(C)NCC[C@@H](Cc1ccccc1)Nc1nccc(N(C)c2ccnc(-c3ccccc3)n2)n1 [Example 58, (R)-N^2-(4-(Isopropylamino)-1-phenylbutan-2-yl)-N^4-methyl-N^4-(2-phenylpyrimidin-4-yl)pyrimidine-2,4-diamine]
CN(c1ccnc(N[C@@H](CCNC2CC2)Cc2ccccc2)n1)c1ccnc(-c2ccccc2)n1 [Example 59, (R)-N^2-(4-(Cyclopropylamino)-1-phenylbutan-2-yl)-N^4-methyl-N^4-(2-phenyl-pyrimidin-4-yl)pyrimidine-2,4-diamine]
CC(C)[C@H](CC(=O)N1CCOCC1)Nc1nccc(N(C)c2ccnc(-c3ccccc3)n2)n1 [Example 61]
CC(C)[C@H](CCN1CCOCC1)Nc1nccc(N(C)c2ccnc(-c3ccccc3)n2)n1 [Example 62, (S)-N^4-Methyl-N^2-(4-methyl-1-morpholinopentan-3-yl)-N^4-(2-phenylpyrimidin-4-yl)pyrimidine-2,4-diamine]
CN(c1ccnc(NCCc2cccnc2)n1)c1nc(-c2ccccc2)ncc1Br [Example 63, N^4-(5-Bromo-2-phenylpyrimidin-4-yl)-N^4-methyl-N^2-(2-(pyridin-3-yl)ethyl)-pyrimidine-2,4-diamine]
CN(c1ccnc(NCCc2cccnc2)n1)c1nc(-c2ccccc2)ncc1C(N)=O [Example 64, 4-(Methyl(2-(2-(pyridin-3-yl)ethylamino)pyrimidin-4-yl)amino)-2-phenyl-pyrimidine-5-carboxamide]
NC(=O)c1cnc(-c2ccccc2)nc1Nc1ccnc(NCCc2cccnc2)n1 [Example 65, 2-Phenyl-4-(2-(2-(pyridin-3-yl)ethylamino)pyrimidin-4-ylamino)pyrimidine-5-carboxamide]
C[C@@H](Cc1cccc(CN)c1)Nc1nccc(N(C)c2nc(-c3ccccc3)ncc2F)n1 [Example 66, (S)-N^2-(1-(3-(Aminomethyl)phenyl)propan-2-yl)-N^4-(5-fluoro-2-phenylpyrimidin-4-yl)-N^4-methylpyrimidine-2,4-diamine]
